Experimental data from PubChem BioAssay AID1963965 (Molecular Pharmacology Branch, DTP, NCI, 2024).

Test system: 996289-038-R-J1-PDC spheroid viability
Assay: Anticancer human tumor 996289-038-R-J1-PDC patient-derived colon adenocarcinoma cell line growth inhibition [PI3K]
Conditions: spheroids with HUVEC and MSC; for IC50: curve of first compound; for viability, T/C: stronger effect = lower value
Method in brief: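 Combination activity was assessed by viability in multicellular tumor spheroids carrying HUVEC and MSC components. Agents were tested with PI3K inhibitors from a Cmax-based top dose (or 10 microM) downward in half-log increments.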

[1] = second compound 0.00316 µM, first compound 0.0316 µM
[2] = second compound 0.00316 µM, first compound 0.1 µM
[3] = second compound 0.00316 µM, first compound 0.316 µM
[4] = second compound 0.00316 µM, first compound 1 µM
[5] = second compound 0.00316 µM, first compound 3.16 µM
[6] = second compound 0.00316 µM, first compound 10 µM
[7] = second compound 0.01 µM, first compound 0.0316 µM
[8] = second compound 0.01 µM, first compound 0.1 µM
[9] = second compound 0.01 µM, first compound 0.316 µM
[10] = second compound 0.01 µM, first compound 1 µM
[11] = second compound 0.01 µM, first compound 3.16 µM
[12] = second compound 0.01 µM, first compound 10 µM
[13] = second compound 0.0316 µM, first compound 0.0316 µM
[14] = second compound 0.0316 µM, first compound 0.1 µM
[15] = second compound 0.0316 µM, first compound 0.316 µM
[16] = second compound 0.0316 µM, first compound 1 µM
[17] = second compound 0.0316 µM, first compound 3.16 µM
[18] = second compound 0.0316 µM, first compound 10 µM
[19] = second compound 0.1 µM, first compound 0.0316 µM
[20] = second compound 0.1 µM, first compound 0.1 µM
[21] = second compound 0.1 µM, first compound 0.316 µM
[22] = second compound 0.1 µM, first compound 1 µM
[23] = second compound 0.1 µM, first compound 3.16 µM
[24] = second compound 0.1 µM, first compound 10 µM
[25] = second compound 0.316 µM, first compound 0.0316 µM
[26] = second compound 0.316 µM, first compound 0.1 µM
[27] = second compound 0.316 µM, first compound 0.316 µM
[28] = second compound 0.316 µM, first compound 1 µM
[29] = second compound 0.316 µM, first compound 3.16 µM
[30] = second compound 0.316 µM, first compound 10 µM
[31] = second compound 1 µM, first compound 0.0316 µM
[32] = second compound 1 µM, first compound 0.1 µM
[33] = second compound 1 µM, first compound 0.316 µM
[34] = second compound 1 µM, first compound 1 µM
[35] = second compound 1 µM, first compound 3.16 µM
[36] = second compound 1 µM, first compound 10 µM
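Note: spheroids exposed to compounds for seven days before viability read.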
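Throughout, for viability, T/C: luminescence used as a proxy for viable cell amount; percent viability relative to DMSO vehicle control as 100%.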

Question: What does the source list for `C=CC(=O)N1CCN(c2nc(=O)n(-c3c(C)ccnc3C(C)C)c3nc(-c4c(O)cccc4F)c(F)cc23)C(C)C1` (stereo unspecified) + COc1c(OCCCN2CCOCC2)ccc2c3n(c(=NC(=O)c4cnc(N)nc4)nc12)CCN3?
Answer: IC50 (second compound 0.00316 µM): > 10 µM; IC50 (second compound 0.01 µM): > 10 µM; IC50 (second compound 0.0316 µM): > 10 µM; IC50 (second compound 0.1 µM): > 10 µM; IC50 (second compound 0.316 µM): < 0.0316 µM; IC50 (second compound 1 µM): < 0.0316 µM; viability, T/C [1]: 99.8%; viability, T/C [2]: 99.1%; viability, T/C [3]: 118%; viability, T/C [4]: 129%; viability, T/C [5]: 137%; viability, T/C [6]: 104%; viability, T/C [7]: 99.8%; viability, T/C [8]: 92.7%; viability, T/C [9]: 108%; viability, T/C [10]: 99.9%; viability, T/C [11]: 106%; viability, T/C [12]: 109%; viability, T/C [13]: 82.6%; viability, T/C [14]: 88.3%; viability, T/C [15]: 85.4%; viability, T/C [16]: 81.5%; viability, T/C [17]: 90.7%; viability, T/C [18]: 85.6%; viability, T/C [19]: 60.7%; viability, T/C [20]: 52.7%; viability, T/C [21]: 62.5%; viability, T/C [22]: 74.3%; viability, T/C [23]: 70.8%; viability, T/C [24]: 71.9%; viability, T/C [25]: 37.7%; viability, T/C [26]: 42.5%; viability, T/C [27]: 38.2%; viability, T/C [28]: 42%; viability, T/C [29]: 48.2%; viability, T/C [30]: 40.5%; viability, T/C [31]: 21%; viability, T/C [32]: 22.6%; viability, T/C [33]: 20.4%; viability, T/C [34]: 22%; viability, T/C [35]: 23.3%; viability, T/C [36]: 20.7%

Question: For `CC(Cn1ccc(-c2ccc(C#N)c(Cl)c2)n1)NC(=O)c1cc(C(C)O)[nH]n1` (stereo unspecified) + COc1c(OCCCN2CCOCC2)ccc2c3n(c(=NC(=O)c4cnc(N)nc4)nc12)CCN3, which IC50 (second compound 0.00316 µM) is on record?
Answer: The IC50 was over 10 µM.

Question: And the IC50 (second compound 0.01 µM)?
Answer: Its IC50 is over 10 µM.

Question: What about the IC50 (second compound 0.0316 µM) of the same compound?
Answer: The IC50 was over 10 µM.

Question: What about the IC50 (second compound 0.1 µM) of the same compound?
Answer: The IC50 was over 10 µM.

Question: What about the IC50 (second compound 0.316 µM) of the same compound?
Answer: Its IC50 is under 0.0316 µM.

Question: What about the IC50 (second compound 1 µM) of the same compound?
Answer: Its IC50 is under 0.0316 µM.

Question: What about the viability, T/C [1] of the same compound?
Answer: Its viability, T/C is 103%.

Question: What about the viability, T/C [2] of the same compound?
Answer: The viability, T/C was 91.1%.

Question: What about the viability, T/C [3] of the same compound?
Answer: Its viability, T/C is 98%.

Question: What about the viability, T/C [4] of the same compound?
Answer: The viability, T/C was 99%.

Question: And the viability, T/C [5]?
Answer: Its viability, T/C is 96.9%.

Question: What about the viability, T/C [6] of the same compound?
Answer: The viability, T/C was 102%.

Question: And the viability, T/C [7]?
Answer: The viability, T/C was 90.5%.

Question: What about the viability, T/C [8] of the same compound?
Answer: The viability, T/C was 97.2%.

Question: And the viability, T/C [9]?
Answer: Its viability, T/C is 92.6%.

Question: What about the viability, T/C [10] of the same compound?
Answer: The viability, T/C was 93.1%.

Question: And the viability, T/C [11]?
Answer: Its viability, T/C is 103%.

Question: What about the viability, T/C [12] of the same compound?
Answer: The viability, T/C was 89.7%.

Question: And the viability, T/C [13]?
Answer: Its viability, T/C is 69.7%.

Question: What about the viability, T/C [14] of the same compound?
Answer: Its viability, T/C is 79.4%.

Question: What about the viability, T/C [15] of the same compound?
Answer: Its viability, T/C is 85.6%.

Question: What about the viability, T/C [16] of the same compound?
Answer: The viability, T/C was 80%.

Question: And the viability, T/C [17]?
Answer: Its viability, T/C is 78.9%.

Question: What about the viability, T/C [18] of the same compound?
Answer: Its viability, T/C is 78.7%.

Question: What about the viability, T/C [19] of the same compound?
Answer: Its viability, T/C is 55%.

Question: And the viability, T/C [20]?
Answer: Its viability, T/C is 56.6%.

Question: And the viability, T/C [21]?
Answer: Its viability, T/C is 66.7%.

Question: What about the viability, T/C [22] of the same compound?
Answer: Its viability, T/C is 64.8%.

Question: And the viability, T/C [23]?
Answer: The viability, T/C was 72.3%.

Question: What about the viability, T/C [24] of the same compound?
Answer: The viability, T/C was 56.1%.

Question: What about the viability, T/C [25] of the same compound?
Answer: Its viability, T/C is 34.1%.

Question: What about the viability, T/C [26] of the same compound?
Answer: Its viability, T/C is 38.9%.

Question: What about the viability, T/C [27] of the same compound?
Answer: The viability, T/C was 40%.

Question: What about the viability, T/C [28] of the same compound?
Answer: Its viability, T/C is 41%.

Question: What about the viability, T/C [29] of the same compound?
Answer: Its viability, T/C is 40.5%.

Question: And the viability, T/C [30]?
Answer: Its viability, T/C is 39.9%.

Question: And the viability, T/C [31]?
Answer: The viability, T/C was 25.2%.

Question: What about the viability, T/C [32] of the same compound?
Answer: The viability, T/C was 17.5%.

Question: And the viability, T/C [33]?
Answer: The viability, T/C was 23%.

Question: And the viability, T/C [34]?
Answer: Its viability, T/C is 18%.

Question: And the viability, T/C [35]?
Answer: The viability, T/C was 22.1%.

Question: And the viability, T/C [36]?
Answer: Its viability, T/C is 17.5%.

Question: Which IC50 (second compound 0.00316 µM) does the source give for `Cn1nccc1Nc1nccc(-c2ccn(C(CO)c3ccc(Cl)c(F)c3)c(=O)c2)n1` (stereo unspecified) + COc1c(OCCCN2CCOCC2)ccc2c3n(c(=NC(=O)c4cnc(N)nc4)nc12)CCN3 here?
Answer: Its IC50 is over 10 µM.

Question: What about the IC50 (second compound 0.01 µM) of the same compound?
Answer: Its IC50 is over 10 µM.

Question: And the IC50 (second compound 0.0316 µM)?
Answer: Its IC50 is 5.91 µM.

Question: What about the IC50 (second compound 0.1 µM) of the same compound?
Answer: The IC50 was 2.56 µM.

Question: And the IC50 (second compound 0.316 µM)?
Answer: Its IC50 is under 0.0316 µM.

Question: And the IC50 (second compound 1 µM)?
Answer: Its IC50 is under 0.0316 µM.

Question: What about the viability, T/C [1] of the same compound?
Answer: Its viability, T/C is 94.8%.

Question: And the viability, T/C [2]?
Answer: The viability, T/C was 82.6%.

Question: And the viability, T/C [3]?
Answer: The viability, T/C was 104%.

Question: And the viability, T/C [4]?
Answer: The viability, T/C was 83.6%.

Question: What about the viability, T/C [5] of the same compound?
Answer: Its viability, T/C is 86.4%.

Question: And the viability, T/C [6]?
Answer: The viability, T/C was 55.6%.

Question: What about the viability, T/C [7] of the same compound?
Answer: Its viability, T/C is 95.6%.

Question: What about the viability, T/C [8] of the same compound?
Answer: The viability, T/C was 87.5%.

Question: And the viability, T/C [9]?
Answer: Its viability, T/C is 91.2%.

Question: And the viability, T/C [10]?
Answer: The viability, T/C was 93.6%.

Question: What about the viability, T/C [11] of the same compound?
Answer: Its viability, T/C is 73.3%.

Question: What about the viability, T/C [12] of the same compound?
Answer: Its viability, T/C is 56.3%.

Question: What about the viability, T/C [13] of the same compound?
Answer: Its viability, T/C is 100%.

Question: What about the viability, T/C [14] of the same compound?
Answer: Its viability, T/C is 80.1%.

Question: What about the viability, T/C [15] of the same compound?
Answer: The viability, T/C was 80%.

Question: What about the viability, T/C [16] of the same compound?
Answer: Its viability, T/C is 76%.

Question: What about the viability, T/C [17] of the same compound?
Answer: The viability, T/C was 58%.

Question: What about the viability, T/C [18] of the same compound?
Answer: Its viability, T/C is 41.2%.

Question: And the viability, T/C [19]?
Answer: The viability, T/C was 69.5%.

Question: What about the viability, T/C [20] of the same compound?
Answer: Its viability, T/C is 62.8%.

Question: What about the viability, T/C [21] of the same compound?
Answer: Its viability, T/C is 64.3%.

Question: And the viability, T/C [22]?
Answer: Its viability, T/C is 54%.

Question: What about the viability, T/C [23] of the same compound?
Answer: The viability, T/C was 51.9%.

Question: And the viability, T/C [24]?
Answer: Its viability, T/C is 22.4%.

Question: And the viability, T/C [25]?
Answer: The viability, T/C was 44.9%.

Question: What about the viability, T/C [26] of the same compound?
Answer: The viability, T/C was 34.7%.

Question: What about the viability, T/C [27] of the same compound?
Answer: Its viability, T/C is 35%.

Question: What about the viability, T/C [28] of the same compound?
Answer: The viability, T/C was 36.4%.

Question: What about the viability, T/C [29] of the same compound?
Answer: Its viability, T/C is 27.9%.

Question: And the viability, T/C [30]?
Answer: Its viability, T/C is 18.5%.

Question: And the viability, T/C [31]?
Answer: The viability, T/C was 18.8%.

Question: What about the viability, T/C [32] of the same compound?
Answer: The viability, T/C was 20.6%.

Question: What about the viability, T/C [33] of the same compound?
Answer: The viability, T/C was 24%.

Question: And the viability, T/C [34]?
Answer: Its viability, T/C is 17.7%.

Question: And the viability, T/C [35]?
Answer: Its viability, T/C is 15%.

Question: What about the viability, T/C [36] of the same compound?
Answer: Its viability, T/C is 9.77%.
